The target of assay [1] is T1, human MetAP2 enzyme (Homo sapiens, UniProt P50579). The experiment in a line: MetAP2 enzyme assay, enzyme complexed with cobalt ions. The settings on record: MetAP2 Co pIC50, MetAP2 enzyme complexed with cobalt ions; Met-AMC substrate at Km.
The target in assay [2] is T1, human MetAP2 enzyme. The experiment in a line: MetAP2 enzyme assay, enzyme complexed with manganese ions. The conditions noted are these: MetAP2 Mn pIC50, MetAP2 enzyme complexed with manganese ions; Met-AMC substrate at Km.

From US9434743B2, “Indazole derivatives” (TAKEDA PHARMACEUTICAL COMPANY LIMITED, priority 2012, dated 2016) come the findings set out here.

The structures appear in SMILES notation. pIC50: −log10 of the molar value.

T1 sequence (P50579 whole entry): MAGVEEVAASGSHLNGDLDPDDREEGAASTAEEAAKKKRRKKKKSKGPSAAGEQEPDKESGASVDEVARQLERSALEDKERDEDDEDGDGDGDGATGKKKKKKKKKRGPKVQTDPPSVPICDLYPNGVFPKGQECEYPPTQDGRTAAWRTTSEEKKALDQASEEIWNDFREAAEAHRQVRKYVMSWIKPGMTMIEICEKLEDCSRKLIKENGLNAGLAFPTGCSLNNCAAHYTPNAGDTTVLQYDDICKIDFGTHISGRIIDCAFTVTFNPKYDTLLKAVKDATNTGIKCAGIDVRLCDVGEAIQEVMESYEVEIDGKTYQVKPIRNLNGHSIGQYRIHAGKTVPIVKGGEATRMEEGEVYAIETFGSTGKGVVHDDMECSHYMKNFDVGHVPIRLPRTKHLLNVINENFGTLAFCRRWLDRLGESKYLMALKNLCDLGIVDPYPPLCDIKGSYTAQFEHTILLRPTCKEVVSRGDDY

As for `CNC(=O)c1ccc(OC)c(-c2cc(C(F)(F)F)cc3[nH]ncc23)c1` [Example 181, 4-methoxy-N-methyl-3-(6-(trifluoromethyl)-1H-indazol-4-yl)benzamide], the pIC50 on human MetAP2 enzyme [1] was 7.80; on human MetAP2 enzyme [2] it was 8.30.

`O=c1[nH]c2cc(-c3cc(C(F)(F)F)cc4[nH]ncc34)cnc2[nH]1` [Example 241, 6-(6-(trifluoromethyl)-1H-indazol-4-yl)-1H-imidazo[4,5-b]pyridin-2(3H)-one]: the negative-log IC50 (pIC50) at human MetAP2 enzyme [1] is 7.80; against human MetAP2 enzyme [2], 8.70.

With `O=C(c1ncc(-c2cc(C(F)(F)F)cc3[nH]ncc23)cn1)N1CCOCC1` [Example 294, morpholino(5-(6-(trifluoromethyl)-1H-indazol-4-yl)pyrimidin-2-yl)methanone], the negative-log IC50 (pIC50) against human MetAP2 enzyme [1] was 5.80; at human MetAP2 enzyme [2], 7.50.

As to `Cc1nn(-c2nnn[nH]2)c(C)c1-c1cc(C(F)(F)F)cc2[nH]ncc12` [Example 169, 4-(3,5-dimethyl-1-(1H-tetrazol-5-yl)-1H-pyrazol-4-yl)-6-(trifluoromethyl)-1H-indazole], the negative-log IC50 (pIC50) was 6.60 on human MetAP2 enzyme [1] and 7.70 at human MetAP2 enzyme [2].

`CC(=O)Cn1nc(C)c(-c2cc(C(F)(F)F)cc3[nH]ncc23)c1C` [Example 324, 1-(3,5-dimethyl-4-(6-(trifluoromethyl)-1H-indazol-4-yl)-1H-pyrazol-1-yl)propan-2-one]: the negative logarithm of the IC50 (pIC50) was 7.20 at human MetAP2 enzyme [1] and 7.50 against human MetAP2 enzyme [2].

With `Oc1ncccc1-c1cc(C(F)(F)F)cc2[nH]ncc12` [Example 210, 3-(6-(trifluoromethyl)-1H-indazol-4-yl)pyridin-2-ol], the negative logarithm of the IC50 (pIC50) was 6.20 at human MetAP2 enzyme [1] and 7.90 against human MetAP2 enzyme [2].

For `Cc1cc(=O)[nH]cc1-c1cc(C(F)(F)F)cc2[nH]ncc12` [Example 390, 4-methyl-5-(6-(trifluoromethyl)-1H-indazol-4-yl)pyridin-2(1H)-one], the results for the pIC50 against human MetAP2 enzyme [1] and against human MetAP2 enzyme [2] were 7.40 and 8.20, respectively.

Regarding `COc1ncc(-c2cc(C(F)(F)F)cc3[nH]ncc23)c2cc[nH]c12` [Example 291, 4-(7-methoxy-1H-pyrrolo[2,3-c]pyridin-4-yl)-6-(trifluoromethyl)-1H-indazole], the figures for the pIC50 at human MetAP2 enzyme [1] and against human MetAP2 enzyme [2] were 7.20 and 8.00, respectively.

With `Cc1cc2cncn2cc1-c1cc(C(F)(F)F)cc2[nH]ncc12` [Example 388, 4-(7-methylimidazo[1,5-a]pyridin-6-yl)-6-(trifluoromethyl)-1H-indazole], the pIC50 against human MetAP2 enzyme [1] is 7.20; at human MetAP2 enzyme [2], 8.10.

Turning to `Cc1ccc(-c2cc(C(F)(F)F)cc3[nH]ncc23)c(C)n1` [Example 215, 4-(2,6-dimethylpyridin-3-yl)-6-(trifluoromethyl)-1H-indazole], the negative logarithm of the IC50 (pIC50) was 7.30 on human MetAP2 enzyme [1] and 8.10 at human MetAP2 enzyme [2].

`FC(F)(F)c1cc(-c2c[nH]c3ncncc23)c2cn[nH]c2c1` [Example 155, 5-(6-(trifluoromethyl)-1H-indazol-4-yl)-7H-pyrrolo[2,3-d]pyrimidine]: the pIC50 against human MetAP2 enzyme [1] is 7.20; against human MetAP2 enzyme [2], 7.80.

For `NC(=O)c1cc(-c2cc(C(F)(F)F)cc3[nH]ncc23)c[nH]c1=O` [Example 231, 2-oxo-5-(6-(trifluoromethyl)-1H-indazol-4-yl)-1,2-dihydropyridine-3-carboxamide], the pIC50 is 6.80 at human MetAP2 enzyme [1] and 8.20 at human MetAP2 enzyme [2].

For the compound `Cc1cc(S(=O)(=O)N(C)C)ccc1-c1cc(C(F)(F)F)cc2[nH]ncc12` [Example 125, N,N,3-trimethyl-4-(6-(trifluoromethyl)-1H-indazol-4-yl)benzenesulfonamide], the pIC50 against human MetAP2 enzyme [1] is 6.80; at human MetAP2 enzyme [2], 7.50.

In the case of `CC(C)CNC(=O)c1cccc(-c2cc(C(F)(F)F)cc3[nH]ncc23)c1` [Example 28, N-isobutyl-3-(6-(trifluoromethyl)-1H-indazol-4-yl)benzamide], the pIC50 on human MetAP2 enzyme [1] is 6.80; against human MetAP2 enzyme [2] it was 7.60.

Take `NC(=O)c1ccc(-c2cc(C(F)(F)F)cc3[nH]ncc23)c(F)c1` [Example 321, 3-fluoro-4-(6-(trifluoromethyl)-1H-indazol-4-yl)benzamide]: the negative-log IC50 (pIC50) was 7.70 against human MetAP2 enzyme [1] and 7.80 at human MetAP2 enzyme [2].

As to `O=C(NCCO)c1ccc(F)c(-c2cc(C(F)(F)F)cc3[nH]ncc23)c1` [Example 360, 4-fluoro-N-(2-hydroxyethyl)-3-(6-(trifluoromethyl)-1H-indazol-4-yl)benzamide], the figures for the pIC50 on human MetAP2 enzyme [1] and against human MetAP2 enzyme [2] were 7.40 and 8.10, respectively.

As to `N#Cc1ncc(-c2cc(C(F)(F)F)cc3[nH]ncc23)cn1` [Example 198, 5-(6-(trifluoromethyl)-1H-indazol-4-yl)pyrimidine-2-carbonitrile], the pIC50 is 6.20 on human MetAP2 enzyme [1] and 7.90 on human MetAP2 enzyme [2].

`Nc1ncc(F)cc1-c1cc(C(F)(F)F)cc2[nH]ncc12` [Example 194, 5-fluoro-3-(6-(trifluoromethyl)-1H-indazol-4-yl)pyridin-2-amine]: the negative logarithm of the IC50 (pIC50) against human MetAP2 enzyme [1] is 6.80; on human MetAP2 enzyme [2], 8.00.

On to `CN(C)C(=O)c1ccccc1-c1cc(C(F)(F)F)cc2[nH]ncc12` [Example 47, N,N-dimethyl-2-(6-(trifluoromethyl)-1H-indazol-4-yl)benzamide], for which the pIC50 against human MetAP2 enzyme [1] is 6.30; at human MetAP2 enzyme [2] it was 7.30.

For `CN1CCN(C(=O)c2cccc(-c3cc(C(F)(F)F)cc4[nH]ncc34)c2)CC1` [Example 84, (4-methylpiperazin-1-yl)(3-(6-(trifluoromethyl)-1H-indazol-4-yl)phenyl)methanone], the results for the pIC50 against human MetAP2 enzyme [1] and at human MetAP2 enzyme [2] were 7.70 and 8.50, respectively.

`Cc1c(-c2cc(C(F)(F)F)cc3[nH]ncc23)c(N)nn1C` [Example 381, 1,5-dimethyl-4-(6-(trifluoromethyl)-1H-indazol-4-yl)-1H-pyrazol-3-amine]: the negative logarithm of the IC50 (pIC50) was 7.40 on human MetAP2 enzyme [1] and 8.20 at human MetAP2 enzyme [2].

Regarding `FC(F)(F)c1cc(-c2cnc3c(c2)OCCN3)c2cn[nH]c2c1` [Example 4, 7-(6-(trifluoromethyl)-1H-indazol-4-yl)-3,4-dihydro-2H-pyrido[3,2-b][1,4]oxazine], the negative logarithm of the IC50 (pIC50) was 7.60 at human MetAP2 enzyme [1] and 8.20 against human MetAP2 enzyme [2].

Take `Cc1cc(=O)n(C)cc1-c1cc(C(F)(F)F)cc2[nH]ncc12` [Example 403, 1,4-dimethyl-5-(6-(trifluoromethyl)-1H-indazol-4-yl)pyridin-2(1H)-one]: the values for the negative logarithm of the IC50 (pIC50) on human MetAP2 enzyme [1] and at human MetAP2 enzyme [2] were 7.20 and 8.00, respectively.

As to `CN(C)C(=O)Cn1c(=O)c(-c2cc(C(F)(F)F)cc3[nH]ncc23)cn(C)c1=O` [Example 309, N,N-dimethyl-2-(3-methyl-2,6-dioxo-5-(6-(trifluoromethyl)-1H-indazol-4-yl)-2,3-dihydropyrimidin-1(6H)-yl)acetamide], the pIC50 was 6.00 against human MetAP2 enzyme [1] and 7.70 at human MetAP2 enzyme [2].

In the case of `COc1nc(C(=O)NCCO)ccc1-c1cc(C(F)(F)F)cc2[nH]ncc12` [Example 394, N-(2-hydroxyethyl)-6-methoxy-5-(6-(trifluoromethyl)-1H-indazol-4-yl)picolinamide], the negative-log IC50 (pIC50) at human MetAP2 enzyme [1] was 7.50; at human MetAP2 enzyme [2], 8.30.

Take `O=c1[nH]cc(-c2cc(C(F)(F)F)cc3[nH]ncc23)c(=O)[nH]1` [Example 54, 5-(6-(trifluoromethyl)-1H-indazol-4-yl)pyrimidine-2,4(1H,3H)-dione]: the negative logarithm of the IC50 (pIC50) was 6.40 against human MetAP2 enzyme [1] and 8.20 at human MetAP2 enzyme [2].

With `COc1ccncc1-c1cc(C(F)(F)F)cc2[nH]ncc12` [Example 30, 4-(4-methoxypyridin-3-yl)-6-(trifluoromethyl)-1H-indazole], the negative-log IC50 (pIC50) is 7.10 on human MetAP2 enzyme [1] and 7.60 on human MetAP2 enzyme [2].

Regarding `NC(=O)c1cc(-c2cc(C(F)(F)F)cc3[nH]ncc23)ccn1` [Example 283, 4-(6-(trifluoromethyl)-1H-indazol-4-yl)picolinamide], the pIC50 against human MetAP2 enzyme [1] was 7.20; against human MetAP2 enzyme [2], 8.40.

As for `NCC(O)c1ccccc1-c1cc(C(F)(F)F)cc2[nH]ncc12` (stereo not drawn) [Example 205, 2-amino-1-(2-(6-(trifluoromethyl)-1H-indazol-4-yl)phenyl)ethanol], the pIC50 against human MetAP2 enzyme [1] was 5.90; on human MetAP2 enzyme [2], 7.90.

In the case of `FC(F)(F)c1cc(-c2cnc3[nH]ccc3c2)c2cn[nH]c2c1` [Example 59, 4-(1H-pyrrolo[2,3-b]pyridin-5-yl)-6-(trifluoromethyl)-1H-indazole], the pIC50 on human MetAP2 enzyme [1] was 7.10; at human MetAP2 enzyme [2] it was 7.90.

For the compound `CN(C)CCOc1ccc(-c2cc(C(F)(F)F)cc3[nH]ncc23)cc1` [Example 280, N,N-dimethyl-2-(4-(6-(trifluoromethyl)-1H-indazol-4-yl)phenoxy)ethanamine], the negative logarithm of the IC50 (pIC50) on human MetAP2 enzyme [1] is 7.50; against human MetAP2 enzyme [2], 8.20.

Consider `FC(F)(F)c1cc(-c2csc(N3CCOCC3)n2)c2cn[nH]c2c1` [Example 60, 4-(4-(6-(trifluoromethyl)-1H-indazol-4-yl)thiazol-2-yl)morpholine], for which the negative logarithm of the IC50 (pIC50) was 6.00 against human MetAP2 enzyme [1] and 7.30 against human MetAP2 enzyme [2].

In the case of `CCN1C(=O)C(=O)c2cc(C)cc(-c3cc(C(F)(F)F)cc4[nH]ncc34)c21` [Example 199, 1-ethyl-5-methyl-7-(6-(trifluoromethyl)-1H-indazol-4-yl)indoline-2,3-dione], the pIC50 was 6.30 against human MetAP2 enzyme [1] and 6.80 on human MetAP2 enzyme [2].

As to `FC(F)(F)c1cc(-c2ccc3ccncc3c2)c2cn[nH]c2c1` [Example 26, 7-(6-(trifluoromethyl)-1H-indazol-4-yl)isoquinoline], the pIC50 is 7.20 against human MetAP2 enzyme [1] and 7.90 on human MetAP2 enzyme [2].

`O=C1COc2c(cccc2-c2cc(C(F)(F)F)cc3[nH]ncc23)N1` [Example 139, 8-(6-(trifluoromethyl)-1H-indazol-4-yl)-2H-benzo[b][1,4]oxazin-3(4H)-one]: the pIC50 against human MetAP2 enzyme [1] is 7.40; against human MetAP2 enzyme [2] it was 8.00.

Take `CCn1nc(C)c(-c2cc(C(F)(F)F)cc3[nH]ncc23)c1C` [Example 168, 4-(1-ethyl-3,5-dimethyl-1H-pyrazol-4-yl)-6-(trifluoromethyl)-1H-indazole]: the negative logarithm of the IC50 (pIC50) against human MetAP2 enzyme [1] is 7.60; against human MetAP2 enzyme [2], 8.20.
